Laboratory results from US20260274865A1, “Fused Ring Compound and Preparation Method Therefor and Use Thereof” (SICHUAN KELUN-BIOTECH BIOPHARMACEUTICAL CO., LTD., priority 2023, published 2026).
Where two headings read alike, the source gives them in different places.

Tests used:
Format in all cases: cell-based
[1] = tested on: NCI-N87 human gastric cancer cells; assay: Inhibitory effects of compounds on NCI-N87 cell proliferation (Cell Counting-Lite 2.0, 72 h); settings: NCI-N87, 72 h
Procedure: (1) Cell plating: First, tumor cells NCI-N87 were cultured in the corresponding culture medium, the cells were digested with trypsin, and the cells were resuspended after centrifugation and counted. The cells were adjusted to an appropriate concentration for plating.
(§1) Co-incubation of the compound of the present invention and tumor cells: After the cells adhered, the culture medium was removed from the cell culture plates, and the diluted biologically active molecule (the compound of the present invention) was added to the wells of the above plate, and incubated for 72 hours.
(§2) Detection of in vitro cell activity: After the incubation was completed, 50 μL of Cell Counting-Lite™ 2.0 reagent (Vazyme) was added to each well, shaken and mixed well in the dark to perform the reaction for 10 minutes, then the detection was carried out, and a microplate reader (manufacturer: BMG, model: PHERAStar-FS) was used for reading. The background RLU was obtained using Cell Counting-Lite™ reagent in cell-free culture medium, and the solvent RLU was obtained using Cell Counting-Lite™ reagent in cell-containing culture medium. […] RLU: relative light unit.

HT29 colon cancer cells = assay: Inhibitory effect of compounds on HT29 cell proliferation (Cell Counting-Lite 2.0, 72 h); settings: Homo sapiens
Procedure: (1) Cell plating: First, tumor cells HT29 were cultured in the corresponding culture medium, the cells were digested with trypsin, and the cells were resuspended after centrifugation and counted. The cells were adjusted to an appropriate concentration for plating.
as §1, §2

HCC1954 cells = assay: Inhibitory effect of compounds on proliferation of HCC1954 cells (Cell Counting-Lite 2.0, 72 h); settings: Homo sapiens
Procedure: (1) Cell plating: First, tumor cells HCC1954 were cultured in the corresponding culture medium, the cells were digested with trypsin, and the cells were resuspended after centrifugation and counted. The cells were adjusted to an appropriate concentration for plating.
as §1, §2

[2] = tested on: NCI-H1975 human non-small cell lung cancer cells; assay: Inhibitory effect of compounds on proliferation of NCI-H1975 cells (Cell Counting-Lite 2.0, 72 h); settings: Table 10, incubated for 72 hours
Procedure: (1) Cell plating: First, tumor cells NCI-H1975 were cultured in the corresponding culture medium, the cells were digested with trypsin, and the cells were resuspended after centrifugation and counted. The cells were adjusted to an appropriate concentration for plating.
as §1, §2

[3] = tested on: HCC827 human non-small cell lung cancer cells; assay: Inhibitory effect of compounds on HCC827 cell proliferation (Cell Counting-Lite 2.0, 72 h); settings: Table 6, incubated for 72 hours, read-out: Inhibition activity of compounds on proliferation of HCC827 cells IC50
Procedure: (1) Cell plating: First, tumor cells HCC827 were cultured in the corresponding culture medium, the cells were digested with trypsin, and the cells were resuspended after centrifugation and counted. The cells were adjusted to an appropriate concentration for plating.
as §1, §2

[4] = Table 2-2, incubated for 72 hours
[5] = HT-29, Table 4-2, incubated for 72 hours
[6] = Table 8-2, incubated for 72 hours, read-out: Inhibitory activity of compounds on proliferation of HCC1954 cells IC50
[7] = Table 2-1, incubated for 72 hours
[8] = HT-29, Table 4-1, incubated for 72 hours
[9] = Table 8-1, incubated for 72 hours, read-out: Inhibition activity of compounds on proliferation of HCC1954 cells IC50

| SMILES | IC50 [1, 4] [nM] | IC50 (HT29 colon cancer cells; [5]) [nM] | IC50 (HCC1954 cells; [6]) [nM] | IC50 [2] [nM] | IC50 [1, 7] [nM] | IC50 (HT29 colon cancer cells; [8]) [nM] | IC50 [3] [nM] | IC50 (HCC1954 cells; [9]) [nM] |
| --- | --- | --- | --- | --- | --- | --- | --- | --- |
| COc1cc2c(cc1OCCCCCOc1cc3c(cc1OC)C(=O)N1CC4(CC4)C[C@H]1CN3)NC[C@@H]1CC(c3ccc(O)cc3)=CN1C2=O [Compound 7-3, (S)-8-((5-(((S)-2-(4-Hydroxyphenyl)-7-methoxy-5-oxo-5,10,11,11a-tetrahydro-1H-benzo[e]pyrrolo[1,2-a][1,4]diazepin-8-yl)oxy)pentyl)oxy)-7-methoxy-1,10,11,11a-tetrahydro-3H,5H-spiro[benzo[e]pyrrolo[1,2-a][1,4]diazepin-2,1′-cyclopropane]-5-one] | 79.3 | 10.2 | 208 | 124 |  |  |  |  |
| COc1cc2c(cc1OCCCCCOc1cc3c(cc1OC)C(=O)N1CC4(CC4)C[C@H]1CN3)NC[C@@H]1CC(c3ccc(N)cc3)=CN1C2=O [Compound 7-5, (S)-8-((5-(((S)-2-(4-Aminophenyl)-7-methoxy-5-oxo-5,10,11,11a-tetrahydro-1H-benzo[e]pyrrolo[1,2-a][1,4]diazepin-8-yl)oxy)pentyl)oxy)-7-methoxy-1,10,11,11-tetrahydro-3H,5H-spiro[benzo[e]pyrrolo[1,2-a][1,4]diazepin-2,1′-cyclopropane]-5-one] | 4.1 |  |  | 12.3 | 3.2 | 1.4 | 13.1 | 25.9 |
| COc1cc2c(cc1OCCCCCOc1cc3c(cc1OC)C(=O)N1CC4(CC4)C[C@H]1CN3)NC[C@@H]1CC3(CC3)CN1C2=O [Compound 7-9] |  |  |  | 107 | 29.7 | 14.9 | 116 | 125 |
| COc1cc2c(cc1OCCCCCOc1cc3c(cc1OC)C(=O)N1CC(F)(F)C[C@H]1CN3)NC[C@@H]1CC(c3ccc(N)cc3)=CN1C2=O [Compound 7-29, (S)-2-(4-aminophenyl)-8-((5-(((S)-2,2-difluoro-7-methoxy-5-oxo-2,3,5,10,11,11a-hexahydro-1H-benzo[e]pyrrolo[1,2-a][1,4]diazepin-8-yl)oxy)pentyl)oxy)-7-methoxy-1,10,11,11a-tetrahydro-5H-benzo[e]pyrrolo[1,2-a][1,4]diazepin-5-one] | 117 |  | 154 |  |  |  |  |  |
| COc1cc2c(cc1OCCCCCOc1cc3c(cc1OC)C(=O)N1CC4(CC4)C[C@H]1CN3)NC[C@@H]1C[C@@H](c3ccc(N)cc3)CN1C2=O [Compound 7-34, (S)-8-((5-(((2S,11aS)-2-(4-aminophenyl)-7-methoxy-5-oxo-2,3,5,10,11,11a-hexahydro-1H-benzo[e]pyrrolo[1,2-a][1,4]diazepin-8-yl)oxy)pentyl)oxy)-7-methoxy-1,10,11,11a-tetrahydro-3H,5H-spiro[benzo[e]pyrrolo[1,2-a][1,4]diazepin-2,1′-cyclopropane]-5-one] | 120 |  |  |  |  |  |  |  |
| COc1cc2c(cc1OCCCCCOc1cc3c(cc1OC)C(=O)N1CC4(CC4)C[C@H]1CN3)NC[C@@H]1C[C@H](c3ccc(N)cc3)CN1C2=O [Compound 7-35] | 118 |  |  |  |  |  |  |  |
| COc1cc2c(cc1OCCCCCOc1cc3c(cc1OC)C(=O)N1CC4(CC4)C[C@H]1CN3)NC[C@@H]1CC(c3ccoc3)=CN1C2=O [Compound 7-36, (S)-8-((5-(((S)-2-(furan-3-yl)-7-methoxy-5-oxo-5,10,11,11a-tetrahydro-1H-benzo[e]pyrrolo[1,2-a][1,4]diazepin-8-yl)oxy)pentyl)oxy)-7-methoxy-1,10,11,11a-tetrahydro-3H,5H-spiro[benzo[e]pyrrolo[1,2-a][1,4]diazepin-2,1′-cyclopropane]-5-one] |  |  |  | 114 | 15.4 | 14.7 | 126 | 144 |
| COc1cc2c(cc1OCCCCCOc1cc3c(cc1OC)C(=O)N1CC4(CC4)C[C@H]1CN3)NC[C@@H]1CC(c3ccsc3)=CN1C2=O [Compound 7-37, (S)-7-methoxy-8-((5-(((S)-7-methoxy-5-oxo-2-(thien-3-yl)-5,10,11,11a-tetrahydro-1H-benzo[e]pyrrolo[1,2-a][1,4]diazepin-8-yl)oxy)pentyl)oxy)-1,10,11,11a-tetrahydro-3H,5H-spiro[benzo[e]pyrrolo[1,2-a][1,4]diazepin-2,1′-cyclopropane]-5-one] |  |  |  | 101 | 24.2 | 16.2 | 124 | 148 |
| COc1cc2c(cc1OCCCCCOc1cc3c(cc1OC)C(=O)N1CC4(CC4)C[C@H]1CN3)NC[C@@H]1CC(c3csc(CO)c3)=CN1C2=O [Compound 7-38, (S)-8-((5-(((S)-2-(5-(hydroxymethyl)thien-3-yl)-7-methoxy-5-oxo-5,10,11,11a-tetrahydro-1H-benzo[e]pyrrolo[1,2-a][1,4]diazepin-8-yl)oxy)pentyl)oxy)-7-methoxy-1,10,11,11a-tetrahydro-3H,5H-spiro[benzo[e]pyrrolo[1,2-a][1,4]diazepin-2,1′-cyclopropane]-5-one] |  |  |  | 105 | 49.7 | 15.4 | 139 | 695 |
| COc1ccc(C2=CN3C(=O)c4cc(OC)c(OCCCCCOc5cc6c(cc5OC)C(=O)N5CC(F)(F)C[C@H]5CN6)cc4NC[C@@H]3C2)cc1 [Compound 7-39, (S)-8-((5-(((S)-2,2-difluoro-7-methoxy-5-oxo-2,3,5, 10,11,11a-hexahydro-1H-benzo[e]pyrrolo[1,2-a][1,4]diazepin-8-yl)oxy)pentyl)oxy)-7-methoxy-2-(4-methoxyphenyl)-1,10,11,11a-tetrahydro-5H-benzo[e]pyrrolo[1,2-a][1,4]diazepin-5-one] | 11 | 9.7 | 140 | 12.3 |  |  |  |  |
| COc1ccc(C2=CN3C(=O)c4cc(OC)c(OCCCCCOc5cc6c(cc5OC)C(=O)N5C[C@H](O)C[C@H]5CN6)cc4NC[C@@H]3C2)cc1 [Compound 7-40, (S)-8-((5-(((2R,11aS)-2-hydroxy-7-methoxy-5-oxo-2,3,5,10,11,11a-hexahydro-1H-benzo[e]pyrrolo[1,2-a][1,4]diazepin-8-yl)oxy)pentyl)oxy)-7-methoxy-2-(4-methoxyphenyl)-1,10,11,11a-tetrahydro-5H-benzo[e]pyrrolo[1,2-a][1,4]diazepin-5-one] | 93.6 |  | 128 |  |  |  |  |  |
| C=C1C[C@H]2CNc3cc(OCCCCCOc4cc5c(cc4OC)C(=O)N4C=C(c6ccc(OC)cc6)C[C@H]4CN5)c(OC)cc3C(=O)N2C1 [Compound 7-41, (S)-7-methoxy-8-((5-(((S)-7-methoxy-2-methylene-5-oxo-2,3,5,10,11,11a-hexahydro-1H-benzo[e]pyrrolo[1,2-a][1,4]diazepin-8-yl)oxy)pentyl)oxy)-2-(4-methoxyphenyl)-1,10,11,11a-tetrahydro-5H-benzo[e]pyrrolo[1,2-a][1,4]diazepin-5-one] |  |  |  | 69.9 | 12.7 | 9.8 | 225 | 259 |
| COc1ccc(C2=CN3C(=O)c4cc(OC)c(OCCCCCOc5cc6c(cc5OC)C(=O)N5[C@H](CN6)C[C@H]6C[C@H]65)cc4NC(=O)[C@@H]3C2)cc1 [Compound 7-42] | 100 | 99.7 |  |  |  |  |  |  |
| COc1ccc(C2=CN3C(=O)c4cc(OC)c(OCCCCCOc5cc6c(cc5OC)C(=O)N5[C@H](CN6)C[C@H]6C[C@H]65)cc4NC[C@@H]3C2)cc1 [Compound 7-43, (1aR,9aS,10aR)-5-methoxy-6-((5-(((S)-7-methoxy-2-(4-methoxyphenyl)-5-oxo-5,10,11,11a-tetrahydro-1H-benzo[e]pyrrolo[1,2-a][1,4]diazepin-8-yl)oxy)pentyl)oxy)-1a,8,9,9a,10,10a-hexahydrobenzo[e]cyclopropo[4,5]pyrrolo[1,2-a][1,4]diazepin-3(1H)-one] | 10.1 | 10.2 |  |  |  |  |  |  |
